# Marks after values point to notes of the source that are not given here.
# Assays:
# male Swiss mice [1] = assay: spontaneous locomotor activity (Opto-Varimex apparatus); assay type: in vivo; conditions: for Locomotor Activity Total / Locomotor Activity ambulatory: 4 mg/kg, decrement relative to vehicle values; for Locomotor Total activity: ambulatory locomotor activity
# Procedure: (§1) In all in vivo tests male Swiss mice of 28-30 g were used. The animals were injected i.p. with vehicle, or a solution of the drug, or fraction, 20 min before the assay. The assays were performed in mice i.p. injected with an amount of each fraction equivalent to that obtained from 1 g of dry Valeriana wallichii powder (see Table 3), 20 min before the test. In the case of the remaining aqueous solution (see Figure 2) it was injected at the maximum tolerated dose which was equivalent to that obtained from only 12 mg of dry Valeriana wallichii powder. This low dosage explains the absence of activity recorded in Table 4.
# (§2) The following tests were used: spontaneous ambulatory activity counts in an Opto-Varimex apparatus that optically detects and measures locomotor activity; the Hole-board, a well-known test to assay for the sedative behavior (6); and the horizontal wire test to detect myorelaxation as described in detail in the literature (7).
# (§3) Mean ±SEM of locomotor activity registered during 5 min session in an Opto-Varimex apparatus and performance of mice in the holeboard test. Wire test was performed after two trials and was registered the number of animals grasped the wire for 3 seconds. Vehicle or 6-methylapigenin were ip administered 20 min before tests. No significant differences were observed using the Student's t test at p>0.05. Table 9 - Anxiolytic effect of 6-methylapigenin measured in the plus-maze test
# mice [2] = assay: sodium thiopental-induced sleeping time; assay type: in vivo
# Procedure: The effect of the active components in fraction H of Table 3 (ACN 50%, 23-27) and that of the aqueous remaining solution (Table 3) were tested in mice by i.p. administration. The doses were 2 mg per mouse for fraction H and 5 mg per mouse for the aqueous remaining solution fraction B. A small amount of conventional anesthetic (30 mg/kg of thiopental sodium - Biochemie, GmbH, Kundl, Austria) was used to induce a slight sleeping condition in the mice which were monitored to detect any possible enhancement of the sleeping condition by the previous injection of the novel compounds.
# Median (interquartile range) of sleeping time of mice given a sodium thiopental i.p. administration (30 mg/kg) 20 min after an i.p. injection of vehicle or 6-methylapigenin. The sleeping time was measured as the time spent between disappearance and reappearance of righting reflex. Table 8 - Effect in different behavioral tests of 6-methylapigenin (sedation tests)
# male Swiss mice [3] = assay: Hole-board test (sedation); assay type: in vivo; conditions: for Hole-board test N° of Head- dips / Hole-board test N° of rearings / Hole-board test Time head dipping: mice
# male Swiss mice [4] = assay: horizontal wire test (myorelaxation); assay type: in vivo
# Procedure: as §1, §2, §3
# [5] = test system: BDZ-bs (benzodiazepine binding site in GABAA brain receptor); assay: BDZ-bs binding assay ([3H]-FNZ binding to cerebral cortical membranes); parameters: species or system rat
# Procedure: In vitro binding assays were carried out with various receptors as well as in vivo tests for sedative activity on the various fractions A-K recovered in Example 1 using the known procedures described in detail in the literature for the following receptors: BDZ-bs (benzodiazepine binding site in GABAA brain receptor) (1); 5-hydroxytriptamine-type 1A (5HT1A) (2); 5HT2 (3); AMPA glutamatergic (4); adenosine 1 (5) . In vivo sedation activity was measured by the Hole-board test (6).
# The presence of BDZ-bs ligands in the fractions obtained at the end of the preparative fractionation scheme described in Figure 2 was checked by the BDZ-bs binding assay as described in Example 2.
# No BDZ-bs ligands were found in the eluates obtained with 20 %, 30 % and 80 % ACN, but they were present in those obtained with 40 % and 50 % ACN. The BDZ-bs ligands distribution obtained is shown in Figure 3 in which the percentage of binding inhibition of [^3H]-FNZ to rat cerebral cortical membranes (averages of duplicated measurements), is shown for 0.05 mL aliquots of the indicated fractions. (Note: Fractions 1-5, 6-10 and 28-32 were collected in bulk; 40 % and 50 % eluates were collected as separate 100 mL fractions. The arrows inside the graph indicate the pools made). […]
# BDZ-bs = assay: GABA-shift of [3H]-FNZ displacement curves; assay type: binding; conditions: for GABA-shift: [3H]-FNZ binding to cortical brain membranes in the presence or absence of 100 µM GABA, n= 3
# mice [6] = assay: elevated plus-maze test (anxiolysis); assay type: in vivo; conditions: for % open arm entries / % time spent in open arms / arm entries: mice, mean ±SEM
# Source text: Anti-anxiety as discussed in the present application is based on the fear that mice have for open spaces i.e. the elevated plus-maze assay.
# [7] = mice, 4 mg/kg i.p. 20 min before sodium thiopental 30 mg/kg i.p. (Table 10)
# [8] = mice, 9 mg/kg i.p. 20 min before sodium thiopental 30 mg/kg i.p. (Table 10)
# [9] = 4 mg/kg, decrement relative to vehicle values
# [10] = 10 mg/kg ip 20 min before test, 5 min session, mean ±SEM
# [11] = 10 mg/kg ip 20 min before test, mean ±SEM
# [12] = 0.3 mg/kg ip 20 min before test
# [13] = mice, 1 mg/kg i.p. 20 min before sodium thiopental 30mg/kg i.p. (Table 20)
# [14] = mice, hesperidin 2 mg/kg i.p. 20 min before sodium thiopental 30mg/kg i.p. (Table 20)
compound,measurement,setting,value
"COc1ccc([C@@H]2CC(=O)c3c(O)cc(O[C@@H]4O[C@H](CO[C@@H]5O[C@@H](C)[C@H](O)[C@@H](O)[C@H]5O)[C@@H](O)[C@H](O)[C@H]4O)cc3O2)cc1O [Citrus hesperidin, hesperidin, reference compound]",Locomotor Activity Total,male Swiss mice [1],-31 percentage
same,Locomotor Activity ambulatory,male Swiss mice [1],-30 percentage
same,activity relative to the natural isomer from valeriana,"mice [2]; estimated from Table 10, sleeping time in mice",approximately 60%
same,Sleeping time Median (s),mice [2]; [7],660* s
same,Sleeping time Median (s),mice [2]; [8],1440** s
same,Hole-board test N° of Head- dips,male Swiss mice [3]; [9],-40 percentage
same,Hole-board test N° of rearings,male Swiss mice [3]; [9],-22 percentage
same,Hole-board test Time head dipping,male Swiss mice [3]; [9],-44 percentage
same,Wire,male Swiss mice [4]; 4 mg/kg,0 percentage
"COc1ccc(-c2cc(=O)c3c(O)cc(O[C@@H]4O[C@H](CO[C@@H]5O[C@@H](C)[C@H](O)[C@@H](O)[C@H]5O)[C@@H](O)[C@H](O)[C@H]4O)cc3o2)cc1 [Linarin, 7-[[6-O-(6-deoxy-α-L-mannopyranosyl)-β-D-glucopyranosyl]oxy]-5-hydroxy-2-(4-methoxyphenyl)-4H-benzopyran-4-one]",dose at which hypnotic activity is evident,mice [2]; estimated from Table 16,7 mg/kg
same,Sleeping time Median,"mice [2]; mice, 4 mg/kg i.p. 20 min before sodium thiopental 30 mg/kg i.p. (Table 16)",0 min
same,Sleeping time Median (min),"mice [2]; mice, 7 mg/kg i.p. 20 min before sodium thiopental 30 mg/kg i.p. (Table 16)",30** min
same,Sleeping time Median (min),"mice [2]; mice, 14 mg/kg i.p. 20 min before sodium thiopental 30 mg/kg i.p. (Table 16)",30** min
same,Sleeping time Median,"mice [2]; mice, linarin 4 mg/kg i.p. 20 min before sodium thiopental 30 mg/kg i.p. (Table 17)",0 min
"COc1ccc([C@@H]2CC(=O)c3c(O)cc(O[C@@H]4O[C@H](CO[C@@H]5O[C@@H](C)[C@H](O)[C@@H](O)[C@H]5O)[C@@H](O)[C@H](O)[C@H]4O)cc3O2)cc1O [Valeriana hesperidin, Hesperetin 7-rhamnoglucoside; 4H-1-Benzopyran-4-one, 7-[[6-O-(6-deoxy-alpha-L-mannopyranosyl)-beta-D-glucopyranosyl]oxy]-2,3-dihydro-5-hydroxy-2-(3-hydroxy-4-methoxyphenyl)-, (S)-]",Locomotor Activity Total,male Swiss mice [1],-55** percentage
same,Locomotor Activity ambulatory,male Swiss mice [1],-58** percentage
same,Sleeping time Median,"mice [2]; mice, 1 mg/kg i.p. 20 min before sodium thiopental 30 mg/kg i.p. (Table 10)",0.583 min
same,Sleeping time Median (s),"mice [2]; mice, 2 mg/kg i.p. 20 min before sodium thiopental 30 mg/kg i.p. (Table 10)",197* s
same,Sleeping time Median (s),mice [2]; [7],1290** s
same,Sleeping time Median (s),mice [2]; [8],1800** s
same,Sleeping time Median (s),"mice [2]; mice, hesperidin 2 mg/kg i.p. 20 min before sodium thiopental 30 mg/kg i.p. (Table 12)",179* s
same,Sleeping time Median (s),"mice [2]; mice, i.p., Dose 3 (unit not given), 20 min before sodium thiopental 30 mg/kg i.p.",500** s
same,Hole-board test N° of Head- dips,male Swiss mice [3]; [9],-74** percentage
same,Hole-board test N° of rearings,male Swiss mice [3]; [9],-58** percentage
same,Hole-board test Time head dipping,male Swiss mice [3]; [9],-81## percentage
same,Wire,male Swiss mice [4]; 4 mg/kg,0 percentage
"Cc1c(O)cc2oc(-c3ccc(O)cc3)cc(=O)c2c1O (single isomer, unassigned) [6-methylapigenin]",Scatchard analysis of saturation curves: type of interaction,"[5]; [3H] FNZ saturation curves, decline in apparent affinity without changes in Bmax",competitive interaction
same,Ki,"[5]; n= 5 (ligand 1), n= 3 (ligand 2)",500 ± 170 nM
same,GABA-shift,BDZ-bs,1.6-2.0
same,behaviour at the BDZ-bs from GABA-shift,BDZ-bs; presence or absence of 100 µM GABA,behaves as an agonist
same,Locomotor Total activity,"male Swiss mice [1]; 0.3 mg/kg ip 20 min before test, 5 min session, mean ±SEM",410±36
same,Locomotor Total activity,"male Swiss mice [1]; 1 mg/kg ip 20 min before test, 5 min session, mean ±SEM",463±64
same,Ambulatory locomotor activity,male Swiss mice [1]; [10],395±43
same,Total Locomotor Activity,male Swiss mice [1]; [10],552±55
same,Sleeping time Median,"mice [2]; mice, 6-methylapigenin 1mg/kg (Table 18)",0 min
same,Sleeping time Median,"mice [2]; mice, 6-methylapigenin 1 mg/kg i.p. 20 min before sodium thiopental 30 mg/kg i.p. (Table 12)",0 min
same,Sleeping time (min) median values,"mice [2]; mice, i.p., 1 mg/kg, 20 min before sodium thiopental 30 mg/kg i.p. (Table 7)",0 min
same,effect on sleeping time,"mice [2]; up to 1 mg/kg, mice receiving a sub-hypnotic dose of thiopental",does not affect the sleeping time
same,Hole-board test N° of Head- dips,male Swiss mice [3]; [11],7±0.5
same,Hole-board test N° of rearings,male Swiss mice [3]; [11],28±3
same,Hole-board test Time head dipping,male Swiss mice [3]; [11],10±1
same,sedative effects,male Swiss mice [3]; up to 10 mg/kg in mice,does not have sedative effects
same,anxiolytic properties in the plus-maze assay,mice [6]; dose of 1 mg/kg in mice,clear anxiolytic properties
same,% open arm entries,mice [6]; [12],48±4%
same,% time spent in open arms,mice [6]; [12],42±4%
same,arm entries,mice [6]; [12],17±2
same,% open arm entries,mice [6]; 1 mg/kg ip 20 min before test,60±6 %
same,% time spent in open arms,mice [6]; 1 mg/kg ip 20 min before test,58±5 %
same,arm entries,mice [6]; 1 mg/kg ip 20 min before test,14±2
same,Wire,"male Swiss mice [4]; 10 mg/kg ip, number of animals that grasped the wire for 3 seconds",5/5
"CC1=C2[C@H](/C=C(\C)C(=O)O)CC[C@@H](C)[C@H]2CC1 [Valerenic acid, reference compound]",Sleeping time Median,"mice [2]; mice, valerenic acid 5 mg/kg (Table 18)",0 min
same,Sleeping time Median,"mice [2]; mice, valerenic acid 5 mg/kg i.p. 20 min before sodium thiopental 30 mg/kg i.p. (Table 17)",0 min
same,Sleeping time Median,"mice [2]; mice, valerenic acid 15mg/kg i.p. 20 min before sodium thiopental 30 mg/kg i.p. (Table 17)",0 min
"O=c1cc(-c2ccc(O)cc2)oc2cc(O)cc(O)c12 [Apigenin, reference compound]",Sleeping time Median,mice [2]; [13],0 min
same,Sleeping time Median (min),"mice [2]; mice, 1 mg/kg i.p. 20 min before sodium thiopental 30mg/kg i.p. (Table 20), listed as apigenin",do not produce any sleeping time
"O=c1cc(-c2ccccc2)oc2cc(O)cc(O)c12 [Chrysin, reference compound]",Sleeping time Median,mice [2]; [13],0 min
COc1ccc([C@@H]2CC(=O)c3c(O)cc(O[C@@H]4O[C@H](CO[C@@H]5O[C@@H](C)[C@H](O)[C@@H](O)[C@H]5O)[C@@H](O)[C@H](O)[C@H]4O)cc3O2)cc1O [Hesperidin],Sleeping time Median,"mice [2]; mice, 4 mg/kg (Table 13)",20 min
same,Sleeping time Median,mice [2]; [14],3.5 min
same,Sleeping time Median (min),mice [2]; [14],3.5* min
"CN1C(=O)CN=C(c2ccccc2)c2cc(Cl)ccc21 [diazepam, reference compound]",GABA-shift,BDZ-bs,2.00 ± 0.10

# From patent publication EP1503771B1, “SEDATIVE MATERIALS AND TREATMENTS” (University of Strathclyde, priority 2002, dated 2003)
